In patent US10435333B2, “High temperature amine-stabilized DCD and/or alkyl thiophosphoric triamide solvent systems and use in agricultural applications” (RHODIA OPERATIONS, priority 2015, dated 2019):

What was measured:
[1] = visual physical stability of NBPT/DMSO formulation with 2 wt % amine stabilizer at high temperature (FIG. 1); type: physicochemical; settings: 2 wt % amine stabilizer in NBPT/DMSO formulation, greater than 45° C.
Description: FIG. 1 is a photograph of Several amines or amides were tested to check if they can stabilize NBPT degradation at high temperatures (at greater than 45° C.) in NBPT/DMSO formulation. Each sample was prepared with 2% of amine stabilizer added.
Referring to FIG. 1, Several amines or amides were tested to check if they can stabilize NBPT degradation at high temperatures (at greater than 45° C.) in NBPT/DMSO formulation. Each sample was prepared with 2 wt % of amine stabilizer added.

[2] = degradation of NBPT at high temperature (colour change, sludge/precipitate); type: physicochemical
Description: Another problem is that certain nitrification inhibitors and/or urease inhibitors degrade at high temperatures. […] Often times temperatures in agricultural fields (e.g., corn fields, wheat fields, etc.) reach in excess of 35° C. and sometimes can reach up to 45° C. or higher. For example, at 45° C. […] Thus, it is also desirable to have solvent systems containing nitrification inhibitors and/or urease inhibitors that are stabilized at high temperatures, such as those unitized in hot climates or weather. This invention addresses the addition of stabilizers to prolong the chemical and physical stability of formulated liquid agricultural compositions containing (i) one or more nitrification inhibitors, (ii) one or more urease inhibitors or (iii) a combination of both (i) and (ii). In one embodiment, the urease inhibitor is NBPT.

[3] = cited from earlier work

Which “physical stability by visual observation (appearance)” value [1] does the source give for `NCCO` [monoethanolamine] here?
Its value is “better physical stability (less dark appearance)”.

For `CCCCNP(N)(N)=S` [NBPT, N-(n-butyl)-thiophosphoric triamide], which “appearance after exposure to high heat” value ([2]; 45° C., NBPT formulated in different solvents, days to weeks) is on record?
Its value is “changes color in days from colorless to a darker green/brown, followed by sludge/precipitate formation after weeks”.

And the “degradation at higher temperature” value ([2]; typically above 45° C.)?
The value was “degrades rapidly”.

Which solubility in water [3] does the source give for `N#CNC(=N)N` [Dicyandiamide, 2-cyanoguanidine] here?
The solubility in water was “about 41 g/l”.
